Measurements from the supplement of paper PMC10307832.

Tests used:
Test in all cases: relative viability (nuclei count vs DMSO), 5 days (fraction); higher = more cells survive
Axitinib + Vorinostat = compound: CNC(=O)c1ccccc1Sc1ccc2c(/C=C/c3ccccn3)n[nH]c2c1 [Axitinib] + O=C(CCCCCCC(=O)Nc1ccccc1)NO [Vorinostat] (partner 1 µM)
Outline: (§1)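 Relative viability divides the nuclei count in treated wells by that in vehicle wells. Lung cancer cell lines were seeded in 1536-well plates, dosed by pin tool the next day, and fixed and stained after 5 days in one step with final 0.05% Triton X-100, 1% formaldehyde and 1 ug/ml Hoechst. Dosing was a single drug or a fixed anchor-drug dose plus five library-drug doses (not always all listed) in √10 steps, and values are medians of duplicate plates imaged at 4×.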

Bemcentinib + Decitabine = compound: Nc1nc(Nc2ccc3c(c2)CC[C@@H](N2CCCC2)CC3)nn1-c1cc2c(nn1)-c1ccccc1CCC2 [Bemcentinib] + Nc1ncn([C@H]2C[C@H](O)[C@@H](CO)O2)c(=O)n1 [Decitabine] (partner 2 µM)
Outline: as §1

Axitinib + Crizotinib = compound: CNC(=O)c1ccccc1Sc1ccc2c(/C=C/c3ccccn3)n[nH]c2c1 [Axitinib] + C[C@@H](Oc1cc(-c2cnn(C3CCNCC3)c2)cnc1N)c1c(Cl)ccc(F)c1Cl [Crizotinib] (partner 1 µM)
Outline: as §1

[1] = compound: CC1=CC=C(C=C1)C(=O)CN2C3=C(CCCC3)SC2=N [Pifithrin_alpha] + O=C(c1cc(Cc2n[nH]c(=O)c3ccccc23)ccc1F)N1CCN(C(=O)C2CC2)CC1 [Olaparib] (partner 8 µM)
Outline: as §1

NCI-H650
relative viability (Axitinib + Vorinostat; first compound 0.005 µM): 0.371 | relative viability (Axitinib + Vorinostat; first compound 0.01581 µM): 0.452 | relative viability (Axitinib + Vorinostat; first compound 0.05 µM): 0.448 | relative viability (Axitinib + Vorinostat; first compound 0.1581 µM): 0.459 | relative viability (Axitinib + Vorinostat; first compound 0.5 µM): 0.366 | relative viability (Bemcentinib + Decitabine; first compound 0.04 µM): 0.269 | relative viability (Bemcentinib + Decitabine; first compound 0.1265 µM): 0.301 | relative viability (Bemcentinib + Decitabine; first compound 0.4 µM): 0.282 | relative viability (Bemcentinib + Decitabine; first compound 1.265 µM): 0.294 | relative viability (Bemcentinib + Decitabine; first compound 4 µM): 0.347 | relative viability (Axitinib + Crizotinib; first compound 0.005 µM): 0.859 | relative viability (Axitinib + Crizotinib; first compound 0.01581 µM): 0.745 | relative viability (Axitinib + Crizotinib; first compound 0.05 µM): 0.779 | relative viability (Axitinib + Crizotinib; first compound 0.1581 µM): 0.782 | relative viability (Axitinib + Crizotinib; first compound 0.5 µM): 0.903 | relative viability ([1]; first compound 3.162 µM): 0.398 | relative viability ([1]; first compound 10 µM): 0.339 | relative viability ([1]; first compound 31.62 µM): 0.221 | relative viability ([1]; first compound 100 µM): 0.355
